Patent publication US20240109917A1 (ACTELION PHARMACEUTICALS LTD, priority 2020, published 2024)

What was measured:
VEGFR2, unphosphorylated = VEGFR2, unphosphorylated (Homo sapiens (Human), UniProt P35968); assay: VEGFR ADP GLO Assay; format: biochemical
[1] = molecular target: Tb-labeled inactive PDGFRβ (Homo sapiens (Human), UniProt P09619); assay: PDGFRβ LanthaScreen Assay; format: binding; conditions: read-out: PDGFR Lantha IC50
Tb-labeled inactive PDGFRβ, sequence (P09619 33-1106): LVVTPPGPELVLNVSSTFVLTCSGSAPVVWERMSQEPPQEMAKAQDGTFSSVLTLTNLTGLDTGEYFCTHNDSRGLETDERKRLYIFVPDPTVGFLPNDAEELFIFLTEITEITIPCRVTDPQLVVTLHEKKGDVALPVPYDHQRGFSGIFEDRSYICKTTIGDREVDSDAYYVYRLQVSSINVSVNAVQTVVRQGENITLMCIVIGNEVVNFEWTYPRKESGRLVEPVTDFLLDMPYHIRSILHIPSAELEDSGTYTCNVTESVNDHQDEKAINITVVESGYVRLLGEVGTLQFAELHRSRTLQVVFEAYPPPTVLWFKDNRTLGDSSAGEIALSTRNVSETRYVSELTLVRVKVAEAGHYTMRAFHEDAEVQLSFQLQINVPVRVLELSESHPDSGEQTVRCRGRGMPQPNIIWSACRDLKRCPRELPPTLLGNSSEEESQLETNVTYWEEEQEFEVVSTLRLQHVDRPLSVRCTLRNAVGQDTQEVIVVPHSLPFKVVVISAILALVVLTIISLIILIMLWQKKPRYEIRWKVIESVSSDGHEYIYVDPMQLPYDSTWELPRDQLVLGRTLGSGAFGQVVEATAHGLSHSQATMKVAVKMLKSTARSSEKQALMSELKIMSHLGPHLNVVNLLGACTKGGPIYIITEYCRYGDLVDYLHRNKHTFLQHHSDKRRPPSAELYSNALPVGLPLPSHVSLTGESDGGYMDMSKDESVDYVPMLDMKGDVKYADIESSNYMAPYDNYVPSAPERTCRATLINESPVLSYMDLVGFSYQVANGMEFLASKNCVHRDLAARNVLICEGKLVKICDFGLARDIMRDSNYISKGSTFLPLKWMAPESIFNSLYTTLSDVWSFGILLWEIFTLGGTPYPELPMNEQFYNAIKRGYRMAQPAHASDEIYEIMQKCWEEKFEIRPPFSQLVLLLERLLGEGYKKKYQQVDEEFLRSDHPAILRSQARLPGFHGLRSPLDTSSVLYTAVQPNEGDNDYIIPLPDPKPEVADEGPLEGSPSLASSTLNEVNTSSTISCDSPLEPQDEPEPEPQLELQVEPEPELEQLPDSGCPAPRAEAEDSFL

VEGFR2, unphosphorylated, sequence (P35968 20-1356): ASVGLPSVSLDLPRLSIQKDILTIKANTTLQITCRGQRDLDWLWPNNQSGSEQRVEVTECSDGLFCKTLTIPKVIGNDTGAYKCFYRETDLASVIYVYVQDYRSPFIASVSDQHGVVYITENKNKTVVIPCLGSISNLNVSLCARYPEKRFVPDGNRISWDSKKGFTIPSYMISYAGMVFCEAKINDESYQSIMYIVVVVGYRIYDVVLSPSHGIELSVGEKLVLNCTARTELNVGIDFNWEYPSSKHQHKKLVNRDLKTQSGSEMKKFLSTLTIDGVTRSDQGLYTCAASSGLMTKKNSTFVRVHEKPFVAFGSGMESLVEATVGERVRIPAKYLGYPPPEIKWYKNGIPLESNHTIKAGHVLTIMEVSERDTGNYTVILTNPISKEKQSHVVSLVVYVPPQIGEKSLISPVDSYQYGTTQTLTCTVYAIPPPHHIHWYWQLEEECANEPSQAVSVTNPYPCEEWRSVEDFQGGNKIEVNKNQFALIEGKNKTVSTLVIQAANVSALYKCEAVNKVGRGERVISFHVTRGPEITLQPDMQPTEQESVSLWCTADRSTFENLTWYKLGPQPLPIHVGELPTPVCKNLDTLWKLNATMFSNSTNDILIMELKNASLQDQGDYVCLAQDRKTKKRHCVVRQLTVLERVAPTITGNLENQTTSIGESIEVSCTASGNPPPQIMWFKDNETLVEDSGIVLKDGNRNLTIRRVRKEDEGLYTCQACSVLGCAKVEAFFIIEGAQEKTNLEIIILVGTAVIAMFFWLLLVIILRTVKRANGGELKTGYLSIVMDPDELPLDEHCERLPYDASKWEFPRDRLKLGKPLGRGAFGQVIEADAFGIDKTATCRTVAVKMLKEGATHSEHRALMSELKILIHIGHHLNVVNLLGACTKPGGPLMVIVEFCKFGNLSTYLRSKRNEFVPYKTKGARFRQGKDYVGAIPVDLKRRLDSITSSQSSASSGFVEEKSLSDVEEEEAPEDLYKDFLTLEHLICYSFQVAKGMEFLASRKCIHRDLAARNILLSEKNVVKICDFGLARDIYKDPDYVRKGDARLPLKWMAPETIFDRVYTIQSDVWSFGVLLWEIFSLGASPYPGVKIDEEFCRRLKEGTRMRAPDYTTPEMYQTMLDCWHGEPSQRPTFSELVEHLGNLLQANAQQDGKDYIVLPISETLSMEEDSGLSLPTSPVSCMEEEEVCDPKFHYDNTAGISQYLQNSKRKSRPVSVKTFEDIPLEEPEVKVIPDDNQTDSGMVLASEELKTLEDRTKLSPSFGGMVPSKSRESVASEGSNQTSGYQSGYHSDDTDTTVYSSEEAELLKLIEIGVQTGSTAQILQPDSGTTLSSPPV

SMILES | IC50 (VEGFR2, unphosphorylated) | IC50 [1]
Cc1ncc(NC(=O)CN2CC(C)(C)C2)cc1NC(=O)c1cnn2cc(-c3cnn(CC(F)(F)F)c3)sc12 [Example 268, N-(5-(2-(3,3-dimethylazetidin-1-yl)acetamido)-2-methylpyridin-3-yl)-2-(1-(2,2,2-trifluoroethyl)-1H-pyrazol-4-yl)pyrazolo[5,1-b]thiazole-7-carboxamide] | > 7500 nM | 14.5 nM
Cc1ncc(NC(=O)CN2CC(C)(C)C2)cc1NC(=O)c1cnn2cc(-c3ccsc3)sc12 [Example 282, N-(5-(2-(3,3-dimethylazetidin-1-yl)acetamido)-2-methylpyridin-3-yl)-2-(thiophen-3-yl)pyrazolo[5,1-b]thiazole-7-carboxamide] | 2680 nM | 1.2 nM
COc1ncccc1-c1cn2ncc(C(=O)Nc3cc(NC(=O)CN4CCC5(CC5)C4)cnc3C)c2s1 [Example 324, N-(5-(2-(5-azaspiro[2.4]heptan-5-yl)acetamido)-2-methylpyridin-3-yl)-2-(2-methoxypyridin-3-yl)pyrazolo[5,1-b]thiazole-7-carboxamide] | 5240 nM | 0.7 nM
Cc1ncc(NC(=O)CN(C)C2CCOCC2)cc1NC(=O)c1cnn2cc(-c3cnn(C(C)C#N)c3)sc12 (stereo not shown) [Example 297, 2-(1-(1-cyanoethyl)-1H-pyrazol-4-yl)-N-(2-methyl-5-(2-(methyl(tetrahydro-2H-pyran-4-yl)amino)acetamido)pyridin-3-yl)pyrazolo[5,1-b]thiazole-7-carboxamide] | > 7500 nM | 8.6 nM
Cc1ncc(NC(=O)CN2CCCC2)cc1NC(=O)c1cnn2cc(-c3cccnc3O)sc12 [Example 312, 2-(2-hydroxypyridin-3-yl)-N-(2-methyl-5-(2-(pyrrolidin-1-yl)acetamido)pyridin-3-yl)pyrazolo[5,1-b]thiazole-7-carboxamide] | > 7500 nM | 39.2 nM
COc1ncccc1-c1cn2ncc(C(=O)Nc3cc(NC(=O)CN4CCCC5(CC5)C4)cnc3C)c2s1 [Example 321, N-(5-(2-(5-azaspiro[2.5]octan-5-yl)acetamido)-2-methylpyridin-3-yl)-2-(2-methoxypyridin-3-yl)pyrazolo[5,1-b]thiazole-7-carboxamide] | > 7500 nM | 1 nM
Cc1ncc(NC(=O)CN(C)C2CCOCC2)cc1NC(=O)c1cnn2cc(-c3cnn(CC(N)=O)c3)sc12 [Example 300, 2-(1-(2-amino-2-oxoethyl)-1H-pyrazol-4-yl)-N-(2-methyl-5-(2-(methyl(tetrahydro-2H-pyran-4-yl)amino)acetamido)pyridin-3-yl)pyrazolo[5,1-b]thiazole-7-carboxamide] | > 7500 nM | 12.4 nM
Cc1ncc(NC(=O)[C@@H]2C[C@H](C)CN2C)cc1NC(=O)c1cnn2cc(-c3cccnc3O)sc12 [Example 316, N-(5-((2S,4S)-1,4-dimethylpyrrolidine-2-carboxamido)-2-methylpyridin-3-yl)-2-(2-hydroxypyridin-3-yl)pyrazolo[5,1-b]thiazole-7-carboxamide] | > 7500 nM | 21.7 nM
Cc1ncc(NC(=O)CCN2CCCC2(C)C)cc1NC(=O)c1cnn2cc(-n3ncc4cccnc43)sc12 [Example 260, N-(5-(3-(2,2-dimethylpyrrolidin-1-yl)propanamido)-2-methylpyridin-3-yl)-2-(1H-pyrazolo[3,4-b]pyridin-1-yl)pyrazolo[5,1-b]thiazole-7-carboxamide] | > 7500 nM | 2.1 nM
Cc1ncc(NC(=O)C[C@@H]2CCCCN2C(C)C)cc1NC(=O)c1cnn2cc(-c3cnn(C)c3)sc12 [Example 305, (S)—N-(5-(2-(1-isopropylpiperidin-2-yl)acetamido)-2-methylpyridin-3-yl)-2-(1-methyl-1H-pyrazol-4-yl)pyrazolo[5,1-b]thiazole-7-carboxamide] | > 7500 nM | 57.8 nM
Cc1ncc(NC(=O)CN(C)C2CCOCC2)cc1NC(=O)c1cnn2cc(-c3cnn(C4CC4)c3)sc12 [Example 294, 2-(1-cyclopropyl-1H-pyrazol-4-yl)-N-(2-methyl-5-(2-(methyl(tetrahydro-2H-pyran-4-yl)amino)acetamido)pyridin-3-yl)pyrazolo[5,1-b]thiazole-7-carboxamide] | > 7500 nM | 5.1 nM
Cc1ncc(NC(=O)CN2CC(C)(C)C2)cc1NC(=O)c1cnn2cc(-c3ccc(CO)s3)sc12 [Example 278, N-(5-(2-(3,3-dimethylazetidin-1-yl)acetamido)-2-methylpyridin-3-yl)-2-(5-(hydroxymethyl)thiophen-2-yl)pyrazolo[5,1-b]thiazole-7-carboxamide] | > 7500 nM | 1.4 nM
Cc1ncc(NC(=O)CN2CC(C)(C)C2)cc1NC(=O)c1cnn2cc(-c3cnn(C4CCNCC4)c3)sc12 [Example 293, N-(5-(2-(3,3-dimethylazetidin-1-yl)acetamido)-2-methylpyridin-3-yl)-2-(1-(piperidin-4-yl)-1H-pyrazol-4-yl)pyrazolo[5,1-b]thiazole-7-carboxamide] | > 7500 nM | 4.6 nM
COc1ncccc1-c1cn2ncc(C(=O)Nc3cc(NC(=O)CN4CCOCC45CCC5)cnc3C)c2s1 [Example 310, N-(5-(2-(8-oxa-5-azaspiro[3.5]nonan-5-yl)acetamido)-2-methylpyridin-3-yl)-2-(2-methoxypyridin-3-yl)pyrazolo[5,1-b]thiazole-7-carboxamide] | > 7500 nM | 1.4 nM
Cc1ncc(NC(=O)C(C)N2CCCCCC2)cc1NC(=O)c1cnn2cc(-c3cnn(C)c3)sc12 (stereo not shown) [Example 306, N-(5-(2-(azepan-1-yl)propanamido)-2-methylpyridin-3-yl)-2-(1-methyl-1H-pyrazol-4-yl)pyrazolo[5,1-b]thiazole-7-carboxamide] | > 7500 nM | 9 nM
COc1ncccc1-c1cn2ncc(C(=O)Nc3cc(NC(=O)C4CCCCN4C(C)C)cnc3C)c2s1 (stereo not shown) [Example 315, N-(5-(1-isopropylpiperidine-2-carboxamido)-2-methylpyridin-3-yl)-2-(2-methoxypyridin-3-yl)pyrazolo[5,1-b]thiazole-7-carboxamide] | 4990 nM | 4.6 nM
COc1ncccc1-c1cn2ncc(C(=O)Nc3cc(NC(=O)[C@@H]4C[C@H](C)CN4C)cnc3C)c2s1 [Example 317, N-(5-((2S,4S)-1,4-dimethylpyrrolidine-2-carboxamido)-2-methylpyridin-3-yl)-2-(2-methoxypyridin-3-yl)pyrazolo[5,1-b]thiazole-7-carboxamide] | > 7500 nM | 2.5 nM
Cc1ncc(NC(=O)CN2CC(C)(C)C2)cc1NC(=O)c1cnn2cc(-c3cnn(CC(C)O)c3)sc12 (stereo not shown) [Example 281, N-(5-(2-(3,3-dimethylazetidin-1-yl)acetamido)-2-methylpyridin-3-yl)-2-(1-(2-hydroxypropyl)-1H-pyrazol-4-yl)pyrazolo[5,1-b]thiazole-7-carboxamide] | > 7500 nM | 3.8 nM
COc1ncccc1-c1cn2ncc(C(=O)Nc3cc(NC(=O)C[C@@H]4CCCN4C(C)C)cnc3C)c2s1 [Example 323, (S)—N-(5-(2-(1-isopropylpyrrolidin-2-yl)acetamido)-2-methylpyridin-3-yl)-2-(2-methoxypyridin-3-yl)pyrazolo[5,1-b]thiazole-7-carboxamide] | > 7500 nM | 1.7 nM
Cc1ncc(NC(=O)CN2CC(C)(C)C2)cc1NC(=O)c1cnn2cc(-c3cnc4[nH]ncc4c3)sc12 [Example 288, N-(5-(2-(3,3-dimethylazetidin-1-yl)acetamido)-2-methylpyridin-3-yl)-2-(1H-pyrazolo[3,4-b]pyridin-5-yl)pyrazolo[5,1-b]thiazole-7-carboxamide] | > 2500 nM | 11.5 nM
COc1ncccc1-c1cn2ncc(C(=O)Nc3cc(NC(=O)C[C@H]4CCCN4C(C)C)cnc3C)c2s1 [Example 309, (R)—N-(5-(2-(1-isopropylpyrrolidin-2-yl)acetamido)-2-methylpyridin-3-yl)-2-(2-methoxypyridin-3-yl)pyrazolo[5,1-b]thiazole-7-carboxamide] | > 7500 nM | 1.5 nM
Cc1ncc(NC(=O)CN2CC(C)(C)C2)cc1NC(=O)c1cnn2cc(-c3cnn(C4CCS(=O)(=O)CC4)c3)sc12 [Example 280, N-(5-(2-(3,3-dimethylazetidin-1-yl)acetamido)-2-methylpyridin-3-yl)-2-(1-(1,1-dioxidotetrahydro-2H-thiopyran-4-yl)-1H-pyrazol-4-yl)pyrazolo[5,1-b]thiazole-7-carboxamide] | > 7500 nM | 4.3 nM
COc1ncccc1-c1cn2ncc(C(=O)Nc3cc(NC(=O)OCC(C)N4CCCC4)cnc3C)c2s1 (stereo not shown) [Example 255, 2-(pyrrolidin-1-yl)propyl (5-(2-(2-methoxypyridin-3-yl)pyrazolo[5,1-b]thiazole-7-carboxamido)-6-methylpyridin-3-yl)carbamate] | > 7500 nM | 1.9 nM
Cc1ncc(NC(=O)CN2CCCCC23COC3)cc1NC(=O)c1cnn2cc(-c3cnn(C)c3)sc12 [Example 25, N-(5-(2-(2-oxa-5-azaspiro[3.5]nonan-5-yl)acetamido)-2-methylpyridin-3-yl)-2-(1-methyl-1H-pyrazol-4-yl)pyrazolo[5,1-b]thiazole-7-carboxamide] | > 7500 nM | 6.6 nM
COCCn1cc(-c2cn3ncc(C(=O)Nc4cc(NC(=O)CN5CCCC5(C)C)cnc4C)c3s2)cn1 [Example 329, N-(5-(2-(2,2-dimethylpyrrolidin-1-yl)acetamido)-2-methylpyridin-3-yl)-2-(1-(2-methoxyethyl)-1H-pyrazol-4-yl)pyrazolo[5,1-b]thiazole-7-carboxamide] | > 7500 nM | 5.6 nM
Cc1ncc(NC(=O)CN2CC(C)(C)C2)cc1NC(=O)c1cnn2cc(-c3cnn(CC4COC4)c3)sc12 [Example 263, N-(5-(2-(3,3-dimethylazetidin-1-yl)acetamido)-2-methylpyridin-3-yl)-2-(1-(oxetan-3-ylmethyl)-1H-pyrazol-4-yl)pyrazolo[5,1-b]thiazole-7-carboxamide] | > 7500 nM | 7.9 nM
